Legend:
Type in all cases: biochemical
[1] = biological target: T1, MKK4 (Homo sapiens, UniProt P45985); assay: 33PanQinase radiometric kinase assay, MKK4; conditions: category based on IC50-values; ATP at apparent Km; read-out: Potency MKK4
T1 construct: purchased ProQinase GmbH, Freiburg, Germany (assay service)
T1 sequence (P45985 1-399): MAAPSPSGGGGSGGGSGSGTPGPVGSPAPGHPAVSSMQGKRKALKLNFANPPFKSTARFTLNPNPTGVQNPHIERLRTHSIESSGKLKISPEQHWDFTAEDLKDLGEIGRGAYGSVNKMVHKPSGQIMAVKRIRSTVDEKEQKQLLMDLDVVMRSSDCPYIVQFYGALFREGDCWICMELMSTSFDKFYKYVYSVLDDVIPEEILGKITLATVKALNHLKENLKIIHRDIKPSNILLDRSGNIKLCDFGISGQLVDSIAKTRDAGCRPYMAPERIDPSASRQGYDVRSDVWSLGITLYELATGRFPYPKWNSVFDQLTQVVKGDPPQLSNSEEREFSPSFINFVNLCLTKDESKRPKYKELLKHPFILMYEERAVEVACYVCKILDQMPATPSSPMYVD
Experimental: (§1) The kinase activities of the compounds of the invention were measured using the 33PanQinase® Assay Service provided by ProQinase GmbH, Freiburg, Germany. Details of the assay conditions are disclosed on the website of ProQinase (https://www.proqinase.com/products-services-biochemical-assay-services/kinase-assays). In brief, all kinase assays were performed in 96-well FlashPlates™ from PerkinElmer (Boston, MA, USA) in a 50 μl reaction volume. The reaction cocktail was pipetted in four steps in the following order: • 20 μl of assay buffer (standard buffer) • 5 μl of ATP solution (in H2O) • 5 μl of test compound (in 10% DMSO) • 20 μl enzyme/substrate mix
(§2) The reaction cocktails were incubated at 30° C. for 60 minutes. The reaction is stopped with 50 μl of 2% (v/v) H3PO4, plates were aspirated and washed two times with 200 μl 0.9% (w/v) NaCl. Incorporation of ^33Pi was determined with a microplate scintillation counter (Microbeta, Wallac).
(§3) All assays were performed with a BeckmanCoulter/SAGIAN™ Core System.
(§4) In case of single concentration assays, the potency of the test compound is expressed as % residual activity. […] The fitting method used was a least-squares fit.

[2] = biological target: T2, BRaf (Homo sapiens, UniProt P15056); assay: 33PanQinase radiometric kinase assay, BRaf (off-target); conditions: ratio IC50(off-target)/IC50(MKK4)
T2 construct: purchased ProQinase GmbH, Freiburg, Germany (assay service)
Experimental: as §1, §2, §3, §4
(§5) Selectivity of test compounds against BRaf, JNK1 and MKK7, altogether denominated as off-targets was calculated by the ratio of IC50 (off-target)/IC50 (MKK4) and categorized as follows: […]

[3] = biological target: T3, JNK1 (Homo sapiens, UniProt P45983); assay: 33PanQinase radiometric kinase assay, JNK1 (off-target); conditions: ratio IC50(off-target)/IC50(MKK4)
T3 construct: purchased ProQinase GmbH, Freiburg, Germany (assay service)
Experimental: as §1, §2, §3, §4, §5

[4] = biological target: T4, MKK7 (Homo sapiens, UniProt O14733); assay: 33PanQinase radiometric kinase assay, MKK7 (off-target); conditions: ratio IC50(off-target)/IC50(MKK4)
T4 construct: purchased ProQinase GmbH, Freiburg, Germany (assay service)
T4 sequence (O14733 1-419): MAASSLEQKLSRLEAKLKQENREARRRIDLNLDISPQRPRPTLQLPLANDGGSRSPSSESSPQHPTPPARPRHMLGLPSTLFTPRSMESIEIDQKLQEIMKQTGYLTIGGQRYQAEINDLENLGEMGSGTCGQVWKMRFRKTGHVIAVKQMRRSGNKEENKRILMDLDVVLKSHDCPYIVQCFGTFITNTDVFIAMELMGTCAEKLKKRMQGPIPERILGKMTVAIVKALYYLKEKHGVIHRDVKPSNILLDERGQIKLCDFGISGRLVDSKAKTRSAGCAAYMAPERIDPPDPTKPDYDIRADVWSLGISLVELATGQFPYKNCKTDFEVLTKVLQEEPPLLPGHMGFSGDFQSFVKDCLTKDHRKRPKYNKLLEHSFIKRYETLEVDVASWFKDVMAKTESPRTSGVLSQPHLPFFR
Experimental: as §1, §2, §3, §4, §5

T2 sequence (P15056 whole entry): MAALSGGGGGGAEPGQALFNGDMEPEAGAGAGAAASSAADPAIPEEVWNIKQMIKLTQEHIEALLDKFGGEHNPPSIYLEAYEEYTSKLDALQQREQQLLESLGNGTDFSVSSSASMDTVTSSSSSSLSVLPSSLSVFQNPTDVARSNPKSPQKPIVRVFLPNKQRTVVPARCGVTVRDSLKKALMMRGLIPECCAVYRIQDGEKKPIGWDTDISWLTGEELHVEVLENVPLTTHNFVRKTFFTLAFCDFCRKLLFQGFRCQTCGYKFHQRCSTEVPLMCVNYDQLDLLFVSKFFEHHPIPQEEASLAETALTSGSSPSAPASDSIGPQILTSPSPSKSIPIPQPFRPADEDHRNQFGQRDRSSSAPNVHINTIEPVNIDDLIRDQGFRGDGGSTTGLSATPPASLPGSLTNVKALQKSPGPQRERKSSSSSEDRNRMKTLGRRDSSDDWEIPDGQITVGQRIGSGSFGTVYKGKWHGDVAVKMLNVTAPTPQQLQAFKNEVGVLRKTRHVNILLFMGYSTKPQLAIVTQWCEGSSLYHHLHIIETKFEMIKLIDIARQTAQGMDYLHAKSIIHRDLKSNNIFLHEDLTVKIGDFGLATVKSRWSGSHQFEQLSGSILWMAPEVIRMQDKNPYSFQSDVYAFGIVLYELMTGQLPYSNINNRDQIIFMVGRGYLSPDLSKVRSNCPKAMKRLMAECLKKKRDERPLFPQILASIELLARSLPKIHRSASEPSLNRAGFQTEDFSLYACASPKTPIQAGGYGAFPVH
T3 sequence (P45983 whole entry): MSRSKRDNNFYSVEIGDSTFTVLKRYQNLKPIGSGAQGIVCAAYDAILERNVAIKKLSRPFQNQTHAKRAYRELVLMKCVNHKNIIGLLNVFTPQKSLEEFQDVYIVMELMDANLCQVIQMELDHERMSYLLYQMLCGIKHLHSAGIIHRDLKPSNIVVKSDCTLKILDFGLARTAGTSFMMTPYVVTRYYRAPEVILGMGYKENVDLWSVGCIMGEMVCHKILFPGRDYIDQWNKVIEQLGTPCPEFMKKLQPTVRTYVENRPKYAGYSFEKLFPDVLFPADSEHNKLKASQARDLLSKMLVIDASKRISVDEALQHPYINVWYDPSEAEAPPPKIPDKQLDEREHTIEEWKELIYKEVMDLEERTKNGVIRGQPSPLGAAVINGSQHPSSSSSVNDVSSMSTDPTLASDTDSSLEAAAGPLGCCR

Structure (SMILES)	IC50 [1]	Selectivity Braf [2]	Selectivity JNK1 [3]	Selectivity MKK7 [4]
CCCS(=O)(=O)Nc1c(F)ccc(C(=O)c2n[nH]c3ncc(-c4cnc(C5CC5)nc4C)cc23)c1F [Example 31, N-(3-(5-(2-cyclopropyl-4-methylpyrimidin-5-yl)-1H-pyrazolo[3,4-b]pyridine-3 carbonyl)-2,6-difluorophenyl)propane-1-sulfonamide]	100 to 1000 nM	+++ (IC50(off-target)/IC50(MKK4) > 100)	+++ (IC50(off-target)/IC50(MKK4) > 100)	+++ (IC50(off-target)/IC50(MKK4) > 100)
CCCS(=O)(=O)Nc1c(F)ccc(C(=O)c2n[nH]c3ncc(-c4cnc(C5CC5)nc4SC)cc23)c1F [Example 32, N-(3-(5-(2-cyclopropyl-4-(methylthio)pyrimidin-5-yl)-1H-pyrazolo[3,4-b]pyridine-3 carbonyl)-2,6-difluorophenyl)propane-1-sulfonamide]	100 to 1000 nM	+++ (IC50(off-target)/IC50(MKK4) > 100)	+++ (IC50(off-target)/IC50(MKK4) > 100)	+++ (IC50(off-target)/IC50(MKK4) > 100)
CCCS(=O)(=O)Nc1c(F)ccc(C(=O)c2n[nH]c3ncc(-c4cnc(SC)nc4C)cc23)c1F [Example 33, N-[2,6-difluoro-3-[5-(4-methyl-2-methylsulfanyl-pyrimidin-5-yl)-1H-pyrazolo[3,4-b]pyridine-3-carbonyl]phenyl]propane-1-sulfonamide]	< 100 nM	+++ (IC50(off-target)/IC50(MKK4) > 100)	+++ (IC50(off-target)/IC50(MKK4) > 100)	+++ (IC50(off-target)/IC50(MKK4) > 100)
CCCS(=O)(=O)Nc1c(F)ccc(C(=O)c2n[nH]c3ncc(-c4cnc(OC)nc4OC)cc23)c1F [Example 34, N-[3-[5-(2,4-dimethoxypyrimidin-5-yl)-1H-pyrazolo[3,4-b]pyridine-3-carbonyl]-2,6-difluoro-phenyl]propane-1-sulfonamide]	< 100 nM	+++ (IC50(off-target)/IC50(MKK4) > 100)	+++ (IC50(off-target)/IC50(MKK4) > 100)	+++ (IC50(off-target)/IC50(MKK4) > 100)

More lines, now with the values ahead:

IC50 [1]	Selectivity Braf [2]	Selectivity JNK1 [3]	Selectivity MKK7 [4]	Structure (SMILES)
< 100 nM	+++ (IC50(off-target)/IC50(MKK4) > 100)	+++ (IC50(off-target)/IC50(MKK4) > 100)	+++ (IC50(off-target)/IC50(MKK4) > 100)	CCCS(=O)(=O)Nc1c(F)cc(F)c(C(=O)c2n[nH]c3ncc(-c4cnc(C5CC5)nc4)cc23)c1F [Example 35, N-(3-(5-(2-cyclopropylpyrimidin-5-yl)-1H-pyrazolo[3,4-b]pyridine-3-carbonyl)-2,4,6-trifluorophenyl)propane-1-sulfonamide]
< 100 nM	+++ (IC50(off-target)/IC50(MKK4) > 100)	+++ (IC50(off-target)/IC50(MKK4) > 100)	+++ (IC50(off-target)/IC50(MKK4) > 100)	CCCS(=O)(=O)Nc1c(F)ccc(C(=O)c2n[nH]c3ncc(-c4ccncc4CC)cc23)c1F [Example 36, N-[3-[5-(3-ethyl-4-pyridyl)-1H-pyrazolo[3,4-b]pyridine-3-carbonyl]-2,6-difluoro-phenyl]propane-1-sulfonamide]
< 100 nM	+++ (IC50(off-target)/IC50(MKK4) > 100)	+++ (IC50(off-target)/IC50(MKK4) > 100)	+++ (IC50(off-target)/IC50(MKK4) > 100)	CCCS(=O)(=O)Nc1c(F)ccc(C(=O)c2n[nH]c3ncc(-c4ccncc4C#N)cc23)c1F [Example 37, N-[3-[5-(3-cyano-4-pyridyl)-1H-pyrazolo[3,4-b]pyridine-3-carbonyl]-2,6-difluoro-phenyl]propane-1-sulfonamide]
